Measurements as given in patent EP0311163A2, “Use of site-specific modified lipolytic enzymes for the selective hydrolysis of organized lipid structures” (DUPHAR INTERNATIONAL RESEARCH B.V, priority 1987, dated 1989).

How the values were obtained:
Experiment in all cases: Binding to micellar cis-9-octadecenyl phosphocholine by UV absorption difference spectroscopy
Conditions in all cases: micellar ligand, N = number of lipid monomers per molecule of enzyme, KD = micellar dissociation constant, read-out: N.KD apparent dissociation constant
[1] = target: T1, Porcine pancreatic phospholipase A₂, [ε-Lau-Lys¹¹⁶]-AMPA (Sus scrofa, UniProt P00592)
T1 construct: Conversion of pro-PLA (i.e. Prec) into [ε-Acyl-Lys¹¹⁶]-AMPA; from tissue; host or cells: pig pancreas; chemically amidinated and lauroylated at Lys116
T1 sequence (P00592 23-146): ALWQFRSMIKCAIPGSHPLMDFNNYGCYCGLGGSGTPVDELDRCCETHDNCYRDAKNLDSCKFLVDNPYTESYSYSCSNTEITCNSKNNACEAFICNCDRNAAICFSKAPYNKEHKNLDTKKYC
Source text: (§1) The following methods, in which the abbreviations used have the meanings given hereinafter, are used for determining the enzymatic activity, the lipid binding properties and the penetrating capacity of the site-specific mono-acylated phospholipases A2 belonging to the invention: -PLA: phospholipase […]: fully ε-amidinated pro-PLA -AMPA: fully ε-amidinated PLA -t-Boc: tertiary butoxycarbonyl -For: formyl -TFA: trifluoroacetic acid -Tris: tri(hydroxymethyl)amino methane -DFP: diisopropylfluorophosphate -DEAE: diethylamino ethyl -CM: carboxymethyl -FPLC: fast protein liquid chromatography -LC: liquid chromatography -TPCK: […]-2-ethanesulphonic acid -DABITC: dimethylamino azobenzene-iso-thiocyanate. • a. Protein concentrations are determined from the absorption at 280 nm using E 1 cm (1%) of 13.0 for porcine and bovine pancreatic ε-amidinated PLA and the mono-acylated analogs thereof. […] Monolayer experiments are carried out using the zero order through with two compartments and the surface barostat technique for measuring phospholipid hydrolysis ([…] and De Haas, Chem. Phys. Lipids, 10, (1973), 127-136). Calculation of the induction time (τ) is carried out as described by […] et al. J. Biol. Chem. 248 (1973), 4023-4034). Surface tension (π) is measured by means of the plate method by Wilhelmy using a thin platinum plate attached to a Beckman R II C Model LM 600 microbalance. • d. Kinetic measurements with micellar diC8PC are carried out according to De Haas et al, Biochem. Biophys. Acta, 239, (1971) 252-266. […] From the table it appears that the presence of a covalently attached long chain fatty acid on […] or […] considerably improves the binding of the enzyme to the zwitterionic detergent. A larger chain length of the fatty acid leads to a lower apparent dissociation constant (N.KD), which means a greater affinity to the organized lipid-water interface which is formed by the micellar substrate analog. [table]

[2] = target: T2, Bovine pancreatic phospholipase A₂ (PLA), native (Bos taurus, UniProt P00593)
T2 construct: pancreatic pro-PLA's can be purified and converted into the corresponding PLA's; from tissue; host or cells: bovine pancreas
T2 sequence (P00593 23-145): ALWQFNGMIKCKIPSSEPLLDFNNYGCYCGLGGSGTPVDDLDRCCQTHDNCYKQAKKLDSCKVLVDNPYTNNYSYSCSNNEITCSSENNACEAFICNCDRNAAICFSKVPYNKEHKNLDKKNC
Source text: as §1

[3] = target: T3, Porcine pancreatic phospholipase A₂ (PLA), native (Sus scrofa, UniProt P00592)
T3 construct: pancreatic pro-PLA's can be purified and converted into the corresponding PLA's; from tissue; host or cells: pig pancreas
T3 sequence (P00592 23-146): as the sequence (P00592 23-146) above
Source text: as §1

[4] = target: T4, Porcine pancreatic phospholipase A₂, [ε-Mal-Lys¹¹⁶]-AMPA (Sus scrofa, UniProt P00592)
T4 construct: Conversion of pro-PLA (i.e. Prec) into [ε-Acyl-Lys¹¹⁶]-AMPA; from tissue; host or cells: pig pancreas; chemically amidinated and maleylated at Lys116
T4 sequence (P00592 23-146): as above
Source text: as §1

[5] = target: T5, Porcine pancreatic phospholipase A₂, [ε-NH₂-Lys¹¹⁶]-AMPA (Sus scrofa, UniProt P00592)
T5 construct: incubated with 0.1% (wt/wt) trypsin at pH 8.0 (10 mM Tris, 5 mM Ca²⁺) in order to obtain [ε-NH₂-Lys-]AMPA; from tissue; host or cells: pig pancreas; partial amidination in the presence of diC8GS, then trypsin conversion of the pro-enzyme
T5 sequence (P00592 23-146): as above
Source text: as §1

[6] = target: T6, Porcine pancreatic phospholipase A₂, [ε-Cap-Lys¹¹⁶]-AMPA (Sus scrofa, UniProt P00592)
T6 construct: Conversion of pro-PLA (i.e. Prec) into [ε-Acyl-Lys¹¹⁶]-AMPA; from tissue; host or cells: pig pancreas; chemically amidinated and caprinoylated at Lys116
T6 sequence (P00592 23-146): as above
Source text: as §1

[7] = target: T7, Porcine pancreatic phospholipase A₂, [ε-Pal-Lys¹¹⁶]-AMPA (Sus scrofa, UniProt P00592)
T7 construct: Conversion of pro-PLA (i.e. Prec) into [ε-Acyl-Lys¹¹⁶]-AMPA; from tissue; host or cells: pig pancreas; chemically amidinated and palmitoylated at Lys116
T7 sequence (P00592 23-146): as above
Source text: as §1

[8] = target: T8, Porcine pancreatic phospholipase A₂, [ε-Ac-Lys¹¹⁶]-AMPA (Sus scrofa, UniProt P00592)
T8 construct: Conversion of pro-PLA (i.e. Prec) into [ε-Acyl-Lys¹¹⁶]-AMPA; from tissue; host or cells: pig pancreas; chemically amidinated and acetylated at Lys116
T8 sequence (P00592 23-146): as above
Source text: as §1

[9] = target: T9, Bovine pancreatic phospholipase A₂, [Arg⁶,ε-Pal-Lys¹⁰]-AMPA (Bos taurus, UniProt P00593, N28R)
T9 construct: Conversion of fully ε-amidinated bovine pancreatic AMPrec in [Arg⁶, ε-Pal-Lys¹⁰]-AMPA; from tissue; host or cells: bovine pancreas; semisynthetic: amidinated fragment 11-123 re-elongated with Pal-Lys, Ile, Met and Ala.Leu.Trp.Gln.Phe.Arg.Gly
T9 sequence (P00593 23-145 N28R): as the sequence (P00593 23-145) above, with N6R counted along it
Source text: as §1

[10] = target: T10, Porcine pancreatic phospholipase A₂, AMPA (fully ε-amidinated PLA) (Sus scrofa, UniProt P00592)
T10 construct: fully ε-amidinated according to the method by Wallace and Harris, Biochem. J., 217, (1984), 589-594, and converted into AMPA; from tissue; host or cells: pig pancreas; chemically amidinated as the pro-enzyme, then converted to the active enzyme
T10 sequence (P00592 23-146): as the sequence (P00592 23-146) above
Source text: as §1

[11] = target: T11, Bovine pancreatic phospholipase A₂, [Arg⁶]-AMPA (Bos taurus, UniProt P00593, N28R)
T11 construct: fully ε-amidinated according to the method by Wallace and Harris, Biochem. J., 217, (1984), 589-594, and converted into AMPA; from tissue; host or cells: bovine pancreas
T11 sequence (P00593 23-145 N28R): as the sequence (P00593 23-145) above, with N6R counted along it
Source text: as §1

[12] = target: T12, Bovine pancreatic phospholipase A₂, AMPA (fully ε-amidinated PLA) (Bos taurus, UniProt P00593)
T12 construct: fully ε-amidinated according to the method by Wallace and Harris, Biochem. J., 217, (1984), 589-594, and converted into AMPA; from tissue; host or cells: bovine pancreas; chemically amidinated as the pro-enzyme, then converted to the active enzyme
T12 sequence (P00593 23-145): as the sequence (P00593 23-145) above
Source text: as §1

[13] = target: T13, Porcine pancreatic phospholipase A₂, [ε-Ol-Lys¹¹⁶]-AMPA (Sus scrofa, UniProt P00592)
T13 construct: Conversion of pro-PLA (i.e. Prec) into [ε-Acyl-Lys¹¹⁶]-AMPA; from tissue; host or cells: pig pancreas; chemically amidinated and oleoylated at Lys116
T13 sequence (P00592 23-146): as the sequence (P00592 23-146) above
Source text: The following methods, in which the abbreviations used have the meanings given hereinafter, are used for determining the enzymatic activity, the lipid binding properties and the penetrating capacity of the site-specific mono-acylated phospholipases A2 belonging to the invention: -PLA: phospholipase […]: fully ε-amidinated pro-PLA -AMPA: fully ε-amidinated PLA -t-Boc: tertiary butoxycarbonyl -For: formyl -TFA: trifluoroacetic acid -Tris: tri(hydroxymethyl)amino methane -DFP: diisopropylfluorophosphate -DEAE: diethylamino ethyl -CM: carboxymethyl -FPLC: fast protein liquid chromatography -LC: liquid chromatography -TPCK: […]-2-ethanesulphonic acid -DABITC: dimethylamino azobenzene-iso-thiocyanate. • a. Protein concentrations are determined from the absorption at 280 nm using E 1 cm (1%) of 13.0 for porcine and bovine pancreatic ε-amidinated PLA and the mono-acylated analogs thereof. […] Monolayer experiments are carried out using the zero order through with two compartments and the surface barostat technique for measuring phospholipid hydrolysis ([…] and De Haas, Chem. Phys. Lipids, 10, (1973), 127-136). Calculation of the induction time (τ) is carried out as described by […] et al. J. Biol. Chem. 248 (1973), 4023-4034). Surface tension (π) is measured by means of the plate method by Wilhelmy using a thin platinum plate attached to a Beckman R II C Model LM 600 microbalance. • d. […]

In the case of CCCCCCCC/C=C\CCCCCCCCOP(=O)([O-])OCC[N+](C)(C)C [cis-9-octadecenylphosphocholine], the Kd [1] is reported as 29 µM, the Kd [2] is reported as 660 µM and the Kd [3] is reported as 58 µM. It also gave a Kd [4] of 43 µM, a Kd [5] of 44 µM and a Kd [6] of 33 µM. It also gave a Kd [7] of 12 µM, a Kd [8] of 38 µM and a Kd [9] of 20 µM. For the same compound, the Kd [10] was 76 µM, the Kd [11] was 120 µM and the Kd [12] was 3200 µM. The Kd [13] was 18 µM.
